Experimental data taken from patent EP1589016A1, “Thio-substituted tricyclic and bicyclic aromatic methanesulfinyl derivatives” (CEPHALON FRANCE, priority 2004, dated 2005).

System: Rats
Test: Evaluation of Wake Promoting Activity in Rats (EEG/EMG sleep/wake scoring)
Type: in vivo, Wistar rats
Settings: i.p. route, 100 mg/kg; for Mean AUC 0-3h, Test compound: n = 4 rats per test compound, group mean, compared with vehicle group (8 rats); for wakefulness compared to the vehicle-treated control groups: rats, p< 0.05 versus vehicle
Protocol: The methodology utilized for evaluating wake promoting activity of test compounds is based on that described by Edgar and Seidel, Journal of Pharmacology and Experimental Therapeutics, 283:757-769, 1997, and incorporated herein in its entirety by reference.
Animal Surgery. Adult, male Wistar rats (275-320g from Charles River Laboratories, Wilmington, MA) were anesthetized (Nembutal, 45 mg/kg, ip.) and surgically prepared with implants for recording of chronic EEG (encephalographic) and EMG (electromyographic) recording. The EEG implants were made from commercially available components (Plastics One, Roanoke, VA). EEG signals were recorded from stainless steel screw electrodes: 2 frontal (+3.0 mm AP from bregma, ±2.0 mm ML), and 2 occipital (-4.0 mm AP from bregma, ±2.0 mm ML). Two Teflon-coated stainless steel wires were positioned under the nuchal trapezoid muscles for EMG recording. All electrode leads were inserted into a connector pedestal and the pedestal affixed to the skull by application dental acrylic. Antibiotic was administered post surgically and antibiotic cream was applied to the wound edges to prevent infection. At least one week elapsed between surgery and recording.
Recording environment. Postsurgically, rats were housed in pairs in an isolated room. Food and water were available ad libitum, ambient temperature was 21°C, and humidity was 55%. At least 24 hrs prior to recording, they were placed in Nalgene containers (31 x 31 x 31 cm) with a wire-grid top, and entry to the room was prohibited during the day of recording except for dosing. The containers were placed on a rack with two shelves, 4 containers per shelf. Fluorescent overhead room lights were set to a 24 hr. light/dark cycle (on at 7 AM, off at 7 PM). Light levels inside the containers were 38 and 25 lux for the top and bottom shelves respectively. Background white-noise (68db inside the containers) was present in the room to mask ambient sounds.
Data acquisition. EEG and EMG signals were led via cables to a commutator (Plastics One) and then to pre-amplifiers (model 1700, A-M Systems, Carlsborg, WA). EEG and EMG signals were amplified (10K and 1K respectively) and bandpass filtered between 0.3 and 500 Hz for EEG and between 10 and 500 Hz for EMG. These signals were digitized at 128 samples per second using ICELUS sleep research software (M. Opp, U. Texas; see Opp, Physiology and Behavior 63:67-74, 1998, and Imeri, Mancia, and Opp, Neuroscience 92:745-749, 1999, incorporated by reference herein in their entirety) running under Labview 5.1 software and data acquisition hardware (PCI-MIO-16E-4; National Instruments, Austin, TX). On the day of dosing, data was recorded for 6 to 10 hours beginning at 11 AM.
Drug administration and study design. Compounds were evaluated on groups of from 4 to 8 rats carried out over one or two separate test sessions. Each animal was tested with a different compound or vehicle for up to 10 weeks with at least 7 days between successive tests. A vehicle group was included in all experiments, and each animal received vehicle every 4th test. Test compounds were suspended in sterile 0.25% methylcellulose (pH=6.2; Upjohn Co., Kalamazoo, MI) at […]. Although compounds can be administered at dosages greater than 100 mg/kg and are expected to be active under the selection criteria of data analysis, unless otherwise noted, compounds were administered at a single dose of 100 mg/kg. Dosing was carried out at noon, while the rats were predominantly asleep. Each rat was lifted out of its container, given an intraperitoneal injection in a volume of 5 mL/kg, and replaced. Dosing required approximately 30 sec per rat.
Sleep / wake scoring. Sleep and wake activity were determined manually using ICELUS software. […]

Row | Compound | Mean AUC 0-3h, Test compound | wakefulness compared to the vehicle-treated control groups
1 | CC(C)(C)OC(=O)N1CCN(C(=O)CSCc2ccc3oc4ccc(F)cc4c3c2)CC1 [Example 26, 4-[2-(8-fluorodibenzofuran-2-yl-methylsulfanyl)acetyl]-piperazine-1-carboxylic acid tret-butyl ester] | 132.0 % of waiking time x hr | significantly greated wakefulness
2 | O=C(C[S+]([O-])Cc1cccc2c1oc1ccccc12)N1CCNCC1 (stereo not drawn) [Example 99] | 129.1 % of waiking time x hr | significantly greated wakefulness
3 | O=C(C[S+]([O-])Cc1cccc2c1-c1ccccc1C2)N1CCNCC1 (stereo not drawn) [Example 130] | 149.2 % of waiking time x hr | significantly greated wakefulness
